Reference: patent US20230114357A1, “CONTINUOUS MELT-COATING OF ACTIVE PHARMACEUTICAL INGREDIENTS USING SURFACTANTS FOR DISSOLUTION ENHANCEMENT” (Rutgers,The State University of New Jersey, priority 2020, published 2023)
Values after ≈ are worked out from the molar mass of the structure shown. One block for each molecule: values may come before it.

What was measured:
[1] = Powder bulk density of ibuprofen / 10% P407 powders; type: physicochemical; conditions: ibuprofen combined with 10% Poloxamer 407, not subjected to heat and shear
Experimental: The screw configurations are shown below, where “C” represents conveying elements and “K” represents kneading elements: For each experiment, mean residence time, powder temperature, and powder bulk density were measured.

[2] = 50 mg powder, 10% cetylpyridinium chloride, 100 rpm, 900 ml deionized water; FIG. 7
Experimental: Dissolution testing was performed on the following materials used or prepared herein in order to determine the percentage of carbamazepine released over time: • 10% cetylpyridinium chloride Treated • 10% cetylpyridinium chloride Physical Mix • Carbamazepine, no surfactant
In each test, 50 mg of powder was added to a dissolution vessel, and dissolution was conducted using the USP paddle method at 100 rpm in 900 ml of a buffer medium of deionized water.

[3] = Dissolution testing of ibuprofen/polyoxyethylene stearate powders (USP paddle method); type: physicochemical; conditions: 12 mg powder, Ibuprofen 2, 10% polyoxyethylene stearate, 75 rpm, 900 ml 0.02 M hydrochloric acid pH 1.8; FIG. 6
Experimental: (§1) In each test, 12 mg of powder was added to a dissolution vessel, and dissolution was conducted using the USP paddle method at 75 rpm in 900 ml of a buffer medium comprising 0.02 M hydrochloric acid and having a pH of 1.8.

[4] = Dissolution testing of ibuprofen/poloxamer powders (USP paddle method); type: physicochemical; conditions: 12 mg powder, 75 rpm, 900 ml 0.02 M hydrochloric acid pH 1.8; Ibuprofen 1, 2, 3; FIGS. 2-4
Experimental: (§2) For each test, 12 mg of powder was added to a dissolution vessel, and dissolution was conducted using the USP paddle method at 75 rpm in 900 ml of a buffer medium comprising 0.02 M hydrochloric acid and having a pH of 1.8.

[5] = physchem; conditions: pH 1.8, simulated gastric fluid
Experimental: as §2, §1

SMILES: CC(C)Cc1ccc(C(C)C(=O)O)cc1 (stereo not shown) [Ibuprofen 1, ibuprofen]
Powder Bulk Density of 10% P407 Physical Mix [1]: 0.320 g/ml

SMILES: NC(=O)N1c2ccccc2C=Cc2ccccc21 [Uncoated carbamazepine, carbamazepine]
dissolution rate (percentage of carbamazepine released over time) [2]: poorest dissolution rate

Continued, values first:

Powder Bulk Density of 10% P407 Physical Mix [1]: 0.374 g/ml
SMILES: CC(C)Cc1ccc(C(C)C(=O)O)cc1 (stereo not shown) [Ibuprofen 2, ibuprofen]

Powder Bulk Density of 10% P407 Physical Mix [1]: 0.382 g/ml
SMILES: CC(C)Cc1ccc(C(C)C(=O)O)cc1 (stereo not shown) [Ibuprofen 3, ibuprofen]

dissolution rate (percentage of ibuprofen released over time) [3]: poorest dissolution rate
dissolution rate (percentage of ibuprofen released over time) [4]: slowest dissolution rate
solubility [5]: 53 µg/mL (≈ 257 µM)
SMILES: CC(C)Cc1ccc(C(C)C(=O)O)cc1 (stereo not shown) [Uncoated ibuprofen, ibuprofen]
